Measurements from ChEMBL document CHEMBL5390259, “Structure Determination of Kahalalide Analogues Based on Metagenomic Analysis of a Bryopsis sp. Marine Green Alga” (J Nat Prod, 2023).

Experiment: Cytotoxicity against rat 3Y1 cells incubated for 2 days by MTT assay
Type: toxicity, cell-based

SMILES	IC50 at 2 days
C/C=C1\NC(=O)[C@H](Cc2ccccc2)NC(=O)[C@@H]([C@@H](C)CC)NC(=O)[C@@H]([C@@H](C)CC)NC(=O)[C@H](NC(=O)[C@@H](CC(C)C)NC(=O)[C@H](CCCN)NC(=O)[C@H]2CCCN2C(=O)[C@H](NC(=O)[C@@H](NC(=O)[C@@H](NC(=O)[C@H](NC(=O)C=C(C)C)[C@@H](C)O)C(C)C)C(C)C)C(C)C)[C@@H](C)OC(=O)[C@H](C(C)C)NC1=O	7.4 µM
C/C=C1\NC(=O)[C@H](Cc2ccccc2)NC(=O)[C@@H]([C@@H](C)CC)NC(=O)[C@@H]([C@@H](C)CC)NC(=O)[C@H](NC(=O)[C@@H](CC(C)C)NC(=O)[C@H](CCCN)NC(=O)[C@H]2CCCN2C(=O)[C@H](NC(=O)[C@@H](NC(=O)[C@@H](NC(=O)[C@H](NC(=O)CCC)[C@@H](C)O)C(C)C)C(C)C)C(C)C)[C@@H](C)OC(=O)[C@H](C(C)C)NC1=O	10 µM
